Values of other authors in patent publication US20240368063A1, “PREPARATION METHOD, IN[…], AND SYNTHESIS METHOD FOR A CLASS OF ANTHRACENE-DERIVED TOXINS IN ORGANIC CHEMISTRY” (WUYAN PHARMACEUTICAL TECHNOLOGY (SHANGHAI) CO., LTD, priority 2022, published 2024).

What was measured:
topoisomerase II = details: at a concentration of 100 μM
human tumor cell lines = details: various tumor cell lines, including cells resistant to anthracyclines

## COc1cccc2c1C(=O)c1c(O)c3c(c(O)c1C2=O)C[C@@](O)(C(=O)CO)C[C@@H]3O[C@H]1C[C@H]2[C@H](O[C@@H]3[C@@H](OC)OCCN32)[C@H](C)O1 [PNU-159682]
Topoisomerase II
  inhibition of the activity of topoisomerase II: weakly inhibits
Human tumor cell lines
  cytotoxicity compared to anthracyclines: three orders of magnitude higher cytotoxicity
